Measured values from the supplement of paper PMC4862054.

How the values were obtained:
Details in all cases: incubation time: 72 h
BT-474 [1] = experiment: normalised response (% of control), CellTox Green; higher = less cell death (100 = DMSO, 0 = benzethonium chloride kill control)
In short: (§1)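 A 20 µl suspension of breast cancer cells was seeded into each well of 384-well plates containing compound at 5 concentrations in 10-fold steps over a compound-specific 10,000-fold range. After 72 h incubation, CellTox Green fluorescence (485/520 nm) was read first, and CellTiter-Glo luminescence was read after 10 min at room temperature. Each plate was normalised against 0.1 % DMSO (100) and a positive kill control (0), and each value is the normalised signal at one concentration.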

BT-549 [2] = experiment: as above
In short: as §1

CAL-120 [3] = experiment: as above
In short: as §1

CAL-148 [4] = experiment: as above
In short: as §1

CAL-51 [5] = experiment: as above
In short: as §1

CAL-85-1 [6] = experiment: as above
In short: as §1

DU-4475 [7] = experiment: as above
In short: as §1

HCC1143 [8] = experiment: as above
In short: as §1

HCC1599 [9] = experiment: as above
In short: as §1

HCC1937 [10] = experiment: as above
In short: as §1

HDQ-P1 [11] = experiment: as above
In short: as §1

Hs578T [12] = experiment: as above
In short: as §1

MCF-10A [13] = experiment: as above
In short: as §1

MDA-MB-231 [14] = experiment: as above
In short: as §1

MDA-MB-436 [15] = experiment: as above
In short: as §1

MDA-MB-453 [16] = experiment: as above
In short: as §1

MDA-MB-468 [17] = experiment: as above
In short: as §1

MFM-223 [18] = experiment: as above
In short: as §1

BT-474 [19] = experiment: normalised response (% of control), CellTiter-Glo; higher = more viable cells (100 = DMSO, 0 = benzethonium chloride kill control)
In short: as §1

BT-549 [20] = experiment: as above
In short: as §1

CAL-120 [21] = experiment: as above
In short: as §1

CAL-148 [22] = experiment: as above
In short: as §1

CAL-51 [23] = experiment: as above
In short: as §1

CAL-85-1 [24] = experiment: as above
In short: as §1

DU-4475 [25] = experiment: as above
In short: as §1

HCC1143 [26] = experiment: as above
In short: as §1

HCC1599 [27] = experiment: as above
In short: as §1

HCC1937 [28] = experiment: as above
In short: as §1

HDQ-P1 [29] = experiment: as above
In short: as §1

Hs578T [30] = experiment: as above
In short: as §1

MCF-10A [31] = experiment: as above
In short: as §1

MDA-MB-231 [32] = experiment: as above
In short: as §1

MDA-MB-436 [33] = experiment: as above
In short: as §1

MDA-MB-453 [34] = experiment: as above
In short: as §1

MDA-MB-468 [35] = experiment: as above
In short: as §1

MFM-223 [36] = experiment: as above
In short: as §1

SK-BR-3 = experiment: as above
In short: as §1

| SMILES | normalised response (BT-474 [1]) [%] | normalised response (BT-549 [2]) [%] | normalised response (CAL-120 [3]) [%] | normalised response (CAL-148 [4]) [%] | normalised response (CAL-51 [5]) [%] | normalised response (CAL-85-1 [6]) [%] | normalised response (DU-4475 [7]) [%] | normalised response (HCC1143 [8]) [%] | normalised response (HCC1599 [9]) [%] | normalised response (HCC1937 [10]) [%] | normalised response (HDQ-P1 [11]) [%] | normalised response (Hs578T [12]) [%] | normalised response (MCF-10A [13]) [%] | normalised response (MDA-MB-231 [14]) [%] | normalised response (MDA-MB-436 [15]) [%] | normalised response (MDA-MB-453 [16]) [%] | normalised response (MDA-MB-468 [17]) [%] | normalised response (MFM-223 [18]) [%] | normalised response (BT-474 [19]) [%] | normalised response (BT-549 [20]) [%] | normalised response (CAL-120 [21]) [%] | normalised response (CAL-148 [22]) [%] | normalised response (CAL-51 [23]) [%] | normalised response (CAL-85-1 [24]) [%] | normalised response (DU-4475 [25]) [%] | normalised response (HCC1143 [26]) [%] | normalised response (HCC1599 [27]) [%] | normalised response (HCC1937 [28]) [%] | normalised response (HDQ-P1 [29]) [%] | normalised response (Hs578T [30]) [%] | normalised response (MCF-10A [31]) [%] | normalised response (MDA-MB-231 [32]) [%] | normalised response (MDA-MB-436 [33]) [%] | normalised response (MDA-MB-453 [34]) [%] | normalised response (MDA-MB-468 [35]) [%] | normalised response (MFM-223 [36]) [%] | normalised response (SK-BR-3) [%] |
| --- | --- | --- | --- | --- | --- | --- | --- | --- | --- | --- | --- | --- | --- | --- | --- | --- | --- | --- | --- | --- | --- | --- | --- | --- | --- | --- | --- | --- | --- | --- | --- | --- | --- | --- | --- | --- | --- |
| CC(C)C(=O)Nc1ccc([N+](=O)[O-])c(C(F)(F)F)c1 [Flutamide] (100 nM) | 99.8 | 94.1 | 104 | 92.5 | 111 | 89.6 | 99.3 | 68.4 | 96.9 | 57.6 | 105 | 87.2 | 50.2 | 97.2 | 82 | 104 | 124 | 95.8 | 101 | 101 | 98.5 | 100 | 113 | 95 | 104 | 103 | 111 | 94.9 | 98.5 | 98 | 96.8 | 102 | 102 | 109 | 94 | 98 | 95.9 |
| COc1cc2c(Oc3ccc(NC(=O)C4(C(=O)Nc5ccc(F)cc5)CC4)cc3F)ccnc2cc1OCCCN1CCOCC1 [Foretinib] (10 nM) | 86.5 | 95.3 | 91.5 | 105 | 109 | 107 | 102 | 104 | 102 | 97.2 | 76.9 | 104 | 107 | 102 | 79.1 | 84.9 | 139 | 97.2 | 102 | 105 | 102 | 105 | 119 | 100 | 103 | 99.6 | 112 | 94.7 | 96.8 | 99.2 | 99.5 | 97.7 | 104 | 107 | 104 | 103 | 104 |
| COc1cc(Nc2ncc(F)c(Nc3ccc4c(n3)N(COP(=O)(O)O)C(=O)C(C)(C)O4)n2)cc(OC)c1OC [Fostamatinib] (25 nM) | 98.7 | 60.2 | 98.4 | 99.6 | 95 | 106 | 99.6 | 100 | 94.1 | 102 | 104 | 101 | 80.9 | 92.3 | 62.8 | 105 | 118 | 78.7 | 97.3 | 104 | 104 | 88.7 | 83 | 98.5 | 95.6 | 101 | 96 | 99.5 | 108 | 93.4 | 100 | 101 | 99.7 | 93.7 | 94.7 | 91.2 | 91.2 |
| CC(C)NC[C@@H](C(=O)N1CCN(c2ncnc3c2[C@H](C)C[C@H]3O)CC1)c1ccc(Cl)cc1 [GDC-0068] (100 nM) | 96.9 | 98.9 | 104 | 82.4 | 106 | 108 | 102 | 93.9 | 94.8 | 104 | 87 | 97.8 | 106 | 97.8 | 85 | 107 | 125 | 102 | 102 | 94.2 | 104 | 62.8 | 80 | 98.3 | 98.8 | 100 | 93.9 | 90.9 | 89.2 | 102 | 111 | 104 | 97.3 | 84.2 | 84 | 68.4 | 95.1 |
| CCCc1cc(C)[nH]c(=O)c1CNC(=O)c1cc(-c2ccnc(N3CCN(C)CC3)c2)cc2c1cnn2C(C)C [GSK343] (100 nM) | 100 | 98.5 | 95.3 | 101 | 62.8 | 106 | 96 | 91.9 | 96.3 | 87.8 | 105 | 51 | 85.8 | 100 | 88.6 | 102 | 161 | 99.6 | 94.8 | 101 | 94.6 | 90.1 | 67.6 | 91.9 | 92.5 | 93.2 | 82.2 | 94.9 | 96.5 | 95.5 | 92.7 | 97.2 | 103 | 90 | 84.6 | 95.5 | 88.1 |
| NC(=O)NO [Hydroxyurea] (1000 nM) | 101 | 105 | 101 | 78.8 | 78.6 | 115 | 102 | 67.2 | 99.6 | 109 | 99.4 | 101 | 108 | 111 | 101 | 96.4 | 103 | 89.5 | 92.1 | 105 | 102 | 104 | 61.3 | 110 | 99.6 | 105 | 97.1 | 97.6 | 95.2 | 101 | 99.2 | 100 | 98.5 | 109 | 102 | 105 | 103 |
| COc1cc2c(cc1-c1c(C)noc1C)ncc1[nH]c(=O)n([C@H](C)c3ccccn3)c12 [I-BET151] (100 nM) | 101 | 93.2 | 97.4 | 102 | 112 | 107 | 103 | 91.9 | 99.1 | 102 | 89.7 | 108 | 89.9 | 78.7 | 64.7 | 98.3 | 54 | 103 | 89.6 | 98.8 | 99.9 | 110 | 104 | 104 | 94.8 | 117 | 100 | 98.4 | 96 | 102 | 93.8 | 99.6 | 96.4 | 85.7 | 98.9 | 103 | 105 |
| CC(C)n1nc(-c2ccc3oc(N)nc3c2)c2c(N)ncnc21 [INK128] (10 nM) | 76.1 | 83.9 | 100 | 96.6 | 99.6 | 99.9 | 96.8 | 60.6 | 95 | 91.2 | 78.1 | 108 | 108 | 99.5 | 94.7 | 99.3 | 104 | 99.9 | 78.9 | 74.7 | 82.4 | 81.7 | 76.8 | 81.4 | 86.8 | 85.8 | 100 | 82.9 | 75 | 85 | 89.1 | 81.8 | 79.1 | 73.8 | 81.2 | 70.6 | 55.6 |
| O=C(O)CC[C@H]1CC[C@@](c2cc(F)ccc2F)(S(=O)(=O)c2ccc(Cl)cc2)CC1 [MK-0752] (10 nM) | 104 | 92.4 | 107 | 101 | 103 | 102 | 108 | 120 | 122 | 125 | 105 | 56.9 | 109 | 122 | 99.9 | 107 | 108 | 85.8 | 105 | 93.8 | 106 | 108 | 101 | 97.2 | 102 | 105 | 91.8 | 98.8 | 99.3 | 106 | 105 | 109 | 99.7 | 114 | 96.1 | 106 | 105 |
